Results: patent publication US9732087B2, “Diamino-pyridine, pyrimidine, and pyridazine modulators of the histamine H4 receptor” (JANSSEN PHARMACEUTICA NV, priority 2008, dated 2017)
pKi: −log10 of the molar value. Where two headings read alike, the source gives them in different places.

Biological target: human H4 receptor (Homo sapiens (Human), UniProt Q9H3N8)
Experiment: Binding assay on recombinant human histamine H4 receptor ([3H]histamine competition, SK-N-MC cell membranes)
Conditions: [3H]histamine 10 nM, average of results
Experimental: Binding Assay on Recombinant Human Histamine H4Receptor
Cell pellets from SK-N-MC cells stably or transiently transfected with human H4 receptor (NCBI accession No. AF312230) were used for the binding assays. Cell pellets were homogenized in 50 mM Tris/5 mM EDTA buffer and supernatants from an 800 g spin were collected and recentrifuged at 30,000 g for 30 min. Pellets were rehomogenized in 50 mM Tris/5 mM EDTA buffer. […] Membranes were harvested by rapid filtration using the 96 well Brandel system (Table 1, Brandel) or a cell harvester (Table 1, Cell Harvester) using a Whatman GF/C filter or filter plates treated with 0.5% polyethylenimine (PEI), and washed 4 times with ice-cold 50 mM Tris/5 mM EDTA buffer. Filters were then dried, mixed with scintillant and radioactive counts were determined. […] Where activity is shown as greater than (>) a particular value, the value is the highest concentration tested.

[1] = membranes harvested with cell harvester, read-out: Cell Harvester Ki
[2] = membranes harvested with 96 well Brandel system, read-out: Brandel Ki

Row | Structure (SMILES) | pKi [1] | pKi [2]
1 | N[C@@H]1CCN(c2ccnc(NCC3CCCO3)n2)C1 (stereo partly drawn) [Example 51, 4-[(R)-3-Aminopyrrolidin-1-yl]-N-(tetrahydrofuran-2-ylmethyl)pyrimidin-2-amine] | 6.91 | 
2 | CC(C)Nc1nccc(N2CC[C@@H](N)C2)n1 [Example 52, 4-[(3R)-3-Aminopyrrolidin-1-yl]-N-(1-methylethyl)pyrimidin-2-amine] | 7.48 | 
3 | CC(C)Nc1nccc(N2CCN(C)CC2)n1 [Example 53, N-(1-Methylethyl)-4-(4-methylpiperazin-1-yl)pyrimidin-2-amine] | 7.07 | 7.61
4 | CN1CCN(c2ccnc(NC3CCC3)n2)CC1 [Example 54, N-Cyclobutyl-4-(4-methylpiperazin-1-yl)pyrimidin-2-amine] | 7.06 | 
5 | N[C@@H]1CCN(c2ccnc(NC3CC3)n2)C1 [Example 55, 4-[(3R)-3-Aminopyrrolidin-1-yl]-N-cyclopropylpyrimidin-2-amine] | 6.99 | 6.86
6 | CN1CCN(c2ccnc(NC3CC3)n2)CC1 [Example 56, N-Cyclopropyl-4-(4-methylpiperazin-1-yl)pyrimidin-2-amine] | 6.25 | 
7 | N[C@@H]1CCN(c2ccnc(NCc3ccc(F)cc3)n2)C1 [Example 57, 4-[(3R)-3-Aminopyrrolidin-1-yl]-N-(4-fluorobenzyl)pyrimidin-2-amine] | 6.85 | 
8 | CN1CCN(c2ccnc(NCc3ccc(F)cc3)n2)CC1 [Example 58, N-(4-Fluorobenzyl)-4-(4-methylpiperazin-1-yl)pyrimidin-2-amine] | 6.47 | 
9 | COCCNc1nccc(N2CC[C@@H](N)C2)n1 [Example 59, 4-[(3R)-3-Aminopyrrolidin-1-yl]-N-(2-methoxyethyl)pyrimidin-2-amine] | 6.72 | 
10 | COCCNc1nccc(N2CCN(C)CC2)n1 [Example 60, N-(2-Methoxyethyl)-4-(4-methylpiperazin-1-yl)pyrimidin-2-amine] | 6.47 | 
11 | N[C@@H]1CCN(c2ccnc(NCc3ccccn3)n2)C1 [Example 61] | < 5.00 | 
12 | CN1CCN(c2ccnc(NCc3ccccn3)n2)CC1 [Example 62, 4-(4-Methylpiperazin-1-yl)-N-(pyridin-2-ylmethyl)pyrimidin-2-amine] | < 5.00 | 
13 | c1cc(N2CCNCC2)nc(NC2CCCC2)n1 [Example 63, Cyclopentyl-(4-piperazin-1-yl-pyrimidin-2-yl)-amine] | 6.53 | 
14 | CC(C)CNc1nccc(N2CCNCC2)n1 [Example 65, Isobutyl-(4-piperazin-1-yl-pyrimidin-2-yl)-amine] | 7.16 | 7.33
15 | c1cc(N2CCNCC2)nc(NCC2CC2)n1 [Example 66, Cyclopropylmethyl-(4-piperazin-1-yl-pyrimidin-2-yl)-amine] | 7.25 | 7.91
16 | CC(C)Nc1nccc(N2CCNCC2)n1 [Example 67, Isopropyl-(4-piperazin-1-yl-pyrimidin-2-yl)amine] | 6.56 | 
17 | CCCCNc1nccc(N2CCNCC2)n1 [Example 68, Butyl-(4-piperazin-1-yl-pyrimidin-2-yl)-amine] | 7.44 | 
18 | c1cc(N2CCNCC2)nc(NC[C@H]2CCCO2)n1 [Example 69, (R)-(4-Piperazin-1-yl-pyrimidin-2-yl)-(tetrahydro-furan-2-ylmethyl)-amine] | < 5.00 | 
19 | c1cc(N2CCNCC2)nc(NC2CC3CCC2C3)n1 (stereo not shown) [Example 70, Bicyclo[2.2.1]hept-2-yl-(4-piperazin-1-yl-pyrimidin-2-yl)-amine] | 7.14 | 6.62
20 | COCCNc1nccc(N2CCNCC2)n1 [Example 72, N-(2-Methoxyethyl)-4-piperazin-1-ylpyrimidin-2-amine] | 6.42 | 
21 | CCCCNc1nccc(N2CC[C@@H](NC)C2)n1 [Example 73, Butyl-[4-(3R)-(3-methylamino-pyrrolidin-1-yl)-pyrimidin-2-yl]-amine] | 9.15 | 8.70
22 | CN[C@@H]1CCN(c2ccnc(NC3CC4CCC3C4)n2)C1 (stereo partly drawn) [Example 74, Bicyclo[2.2.1]hept-2-yl-[4-(3R)-(3-methylamino-pyrrolidin-1-yl)-pyrimidin-2-yl]-amine] | 8.92 | 
23 | CN[C@@H]1CCN(c2ccnc(NCC3CC3)n2)C1 [Example 77, Cyclopropylmethyl-[4-(3R)-(3-methylamino-pyrrolidin-1-yl)-pyrimidin-2-yl]-amine] | 8.48 | 
24 | CN[C@@H]1CCN(c2ccnc(NC(C)C)n2)C1 [Example 78, Isopropyl-[4-(3R)-(3-methylamino-pyrrolidin-1-yl)-pyrimidin-2-yl]-amine] | 8.22 | 

Further lines, results first:

Row | pKi [1] | pKi [2] | Structure (SMILES)
25 | 7.94 |  | CN[C@@H]1CCN(c2ccnc(NCc3ccc(F)cc3)n2)C1 [Example 79, (4-Fluoro-benzyl)-[4-(3R)-(3-methylamino-pyrrolidin-1-yl)-pyrimidin-2-yl]amine]
26 | 7.63 |  | CN[C@@H]1CCN(c2ccnc(NC3CC3)n2)C1 [Example 80, Cyclopropyl-[4-(3R)-(3-methylamino-pyrrolidin-1-yl)-pyrimidin-2-yl]-amine]
27 | 7.61 |  | CN[C@@H]1CCN(c2ccnc(NCC3CCCO3)n2)C1 (stereo partly drawn) [Example 81, [4-(3R)-(3-Methylamino-pyrrolidin-1-yl)-pyrimidin-2-yl]-(tetrahydro-furan-2-ylmethyl)-amine]
28 | 7.34 |  | CN[C@@H]1CCN(c2ccnc(NCCOC)n2)C1 [Example 82, (2-Methoxy-ethyl)-[4-(3R)-(3-methylamino-pyrrolidin-1-yl)-pyrimidin-2-yl]-amine]
29 | 6.71 |  | CN[C@@H]1CCN(c2ccnc(NCc3ccccn3)n2)C1 [Example 83, [4-(3R)-(3-Methylamino-pyrrolidin-1-yl)-pyrimidin-2-yl]-pyridin-2-ylmethyl-amine]
30 | 7.48 |  | CCCCNc1nccc(N2CC(N)C2)n1 [Example 84, [4-(3-Amino-azetidin-1-yl)-pyrimidin-2-yl]-butyl-amine]
31 | 7.74 |  | NC1CN(c2ccnc(NC3CCCC3)n2)C1 [Example 85, 4-(3-Aminoazetidin-1-yl)-N-cyclopentylpyrimidin-2-amine]
32 | 7.47 |  | NC1CN(c2ccnc(NCC3CC3)n2)C1 [Example 86, 4-(3-Aminoazetidin-1-yl)-N-(cyclopropylmethyl)pyrimidin-2-amine]
33 | 7.47 |  | NC1CN(c2ccnc(NC3CC4CCC3C4)n2)C1 (stereo not shown) [Example 87, 4-(3-Aminoazetidin-1-yl)-N-bicyclo[2.2.1]hept-2-ylpyrimidin-2-amine]
34 | 7.37 |  | CC(C)(C)CNc1nccc(N2CC(N)C2)n1 [Example 88, 4-(3-Aminoazetidin-1-yl)-N-(2,2-dimethylpropyl)pyrimidin-2-amine]
35 | 7.16 | 7.58 | CC(C)CNc1nccc(N2CC(N)C2)n1 [Example 89, 4-(3-Aminoazetidin-1-yl)-N-(2-methylpropyl)pyrimidin-2-amine]
36 | 6.98 | 7.16 | CC(C)Nc1nccc(N2CC(N)C2)n1 [Example 90, 4-(3-Aminoazetidin-1-yl)-N-(1-methylethyl)pyrimidin-2-amine]
37 | 6.74 |  | NC1CN(c2ccnc(NC3CC3)n2)C1 [Example 91, 4-(3-Aminoazetidin-1-yl)-N-cyclopropylpyrimidin-2-amine]
38 | 6.21 |  | NC1CN(c2ccnc(NCc3ccc(F)cc3)n2)C1 [Example 92, 4-(3-Aminoazetidin-1-yl)-N-(4-fluorobenzyl)pyrimidin-2-amine]
